According to patent publication US20090192176A1, “1H-PYRAZOLO[3,4-D]PYRIMIDINE, PURINE, 7H-PURIN-8(9H)-ONE, 3H-[1,2,3]TRIAZOLO[4,5-D]PYRIMIDINE, AND THIENO[3,2-D]PYRIMIDINE COMPOUNDS, THEIR USE AS mTOR KINASE AND PI3 KINASE INHIBITORS, AND THEIR SYNTHESES” (Wyeth, priority 2008, published 2009):

Legend:
Assay type in all cases: biochemical
[1] = molecular target: T1, Human mTOR (Homo sapiens, UniProt P42345); assay: mTOR kinase assay (DELFIA format, purified enzyme); settings: His6-S6K substrate, read-out: TOR Kinase IC50
T1 construct: FLAG
Protocol: mTOR Kinase Assay Methods
Human mTOR assays (See Toral-Barza, et al. Biochem Biophys. Res. Commun. 2005 Jun. 24; 332(1):304-10) with purified enzyme are performed in 96-well plates by DELFIA format as follows. Enzymes are first diluted in kinase assay buffer (10 mM HEPES (pH 7.4), 50 mM NaCl, 50 mM β-glycerophosphate, 10 mM MnCl2, 0.5 mM DTT, 0.25 mM microcystin LR, and […]). To each well, 12 μL of the diluted enzyme is mixed briefly with 0.5 μL test inhibitor or control vehicle dimethylsulfoxide (DMSO). The kinase reaction is initiated by adding 12.5 μL kinase assay buffer containing ATP and His6-S6K to give a final reaction volume of 25 μL containing 800 ng/mL FLAG-TOR, […] and […]. The reaction plate is incubated for 2 hours (linear at 1-6 hours) at room temperature with gentle shaking and then terminated by adding 25 μL Stop buffer (20 mM HEPES (pH 7.4), 20 mM EDTA, 20 mM EGTA). The DELFIA detection of the phosphorylated (Thr-389) His6-S6K is performed at room temperature using a monoclonal anti-P(T389)-p70S6K antibody (1A5, Cell Signaling) labeled with Europium-N1-ITC (Eu) (10.4 Eu per antibody, PerkinElmer). The DELFIA Assay buffer and Enhancement solution can be purchased from PerkinElmer. 45 μL of the terminated kinase reaction mixture is transferred to a MaxiSorp plate (Nunc) containing 55 μL PBS. The His6-S6K is allowed to attach for 2 hours after which the wells are aspirated and washed once with PBS. 100 μL of DELFIA Assay buffer with 40 ng/mL Eu-P(T389)-S6K antibody is added. The antibody binding is continued for 1 hour with gentle agitation. The wells are then aspirated and washed 4 times with PBS containing 0.05% Tween-20 (PBST). 100 μL of DELFIA Enhancement solution is added to each well and the plates are read in a PerkinElmer Victor model plate reader. Data obtained is used to calculate enzymatic activity and enzyme inhibition by potential inhibitors.

[2] = molecular target: PI3 Kinase α (Homo sapiens, UniProt P42336); assay: Fluorescence polarization assay for PI3K
Protocol: (§1) Fluorescence Polarization Assay for PI3K
(§2) This assay is used to determine the IC50 of compounds of the present invention as it identifies inhibitors of PI3 kinase by measuring inhibition.
(§3) Reaction Buffer: 20 mM HEPES, pH 7.5, 2 mM MgCl2, 0.05% CHAPS; and 0.01% BME (added fresh) Stop/Detection Buffer: 100 mM HEPES, pH 7.5, 4 mM EDTA, 0.05% CHAPS; ATP 20 mM in water; PIP2 (diC8, cat# P-4508) 1 mM in water (MW=856.5); GST-GRP 1.75 mg/mL or 1.4 mg/mL in 10% glycerol; Red detector (TAMRA) 2.5 μM; Plate: Nunc 384 well black polypropylene fluorescence plate.
(§4) The assay is run by placing 5 μL of diluted enzyme per well, then 5 μL of diluted compound (or 9.5 μL enzyme then 0.5 μL compound in DMSO) is added and mixed. Then, 10 μL substrate is added to start the reaction. The samples are incubated 30-60 minutes, then the reaction is stopped by adding 20 μL stop/detector mix. PI3K is diluted with reaction buffer (e.g., 5 μL or 7.5 μL PI3K into 620 μL reaction buffer), and 5 μL of diluted enzyme is used per well. 5 μL reaction buffer or drug diluted in buffer (e.g., 4 μL/100 so final DMSO is 1% in reaction) is added to each. Pipetting up and down mixes the samples. Alternatively, the enzyme can be diluted to 1215 μL. In this case 9.8 μL is added per well and 0.2 μL compound is added in DMSO. To prepare 1 mL of substrate solution, 955 μL reaction buffer, 40 μL PIP2, and 2.5 μL ATP are mixed. 10 μL of substrate is added to each well to start the reaction.
(§5) Stop/detector mix is prepared by mixing 4 μL Red detector and 1.6 μL or 2.0 μL GST-GRP with 1 mL Stop buffer, which results in 10 nM probe and 70 nM GST-GRP). 20 μL of the stop/detector mix is added to each well to stop the reaction. The plates are read after 30-90 minutes keeping the red probe solutions dark. For the zero time point, stop/detector mix is added to the enzyme just before adding substrate. For an extra control, stop/detector mix is added to buffer (no enzyme) and substrate or to just buffer (no substrate). […] The recommended reaction has 0.06 μL per 20 μL (0.015 μg/20 μL) or 0.01125 μg/15 μL or 0.75 μg/mL. Plates are read on machines with filters for Tamra. The units are mP with no enzyme controls reading app 190-220 mP units. Fully active enzyme reduces fluorescence polarization down to 70-100 mP after 30 minutes. An active compound raises the mP values halfway to control or to 120-150 mP units.

[3] = molecular target: PI3 Kinase γ (Homo sapiens, UniProt P48736); assay: Fluorescence polarization assay for PI3K
Protocol: as §1, §2, §3, §4, §5

Sequence of PI3 Kinase γ (P48736 whole entry): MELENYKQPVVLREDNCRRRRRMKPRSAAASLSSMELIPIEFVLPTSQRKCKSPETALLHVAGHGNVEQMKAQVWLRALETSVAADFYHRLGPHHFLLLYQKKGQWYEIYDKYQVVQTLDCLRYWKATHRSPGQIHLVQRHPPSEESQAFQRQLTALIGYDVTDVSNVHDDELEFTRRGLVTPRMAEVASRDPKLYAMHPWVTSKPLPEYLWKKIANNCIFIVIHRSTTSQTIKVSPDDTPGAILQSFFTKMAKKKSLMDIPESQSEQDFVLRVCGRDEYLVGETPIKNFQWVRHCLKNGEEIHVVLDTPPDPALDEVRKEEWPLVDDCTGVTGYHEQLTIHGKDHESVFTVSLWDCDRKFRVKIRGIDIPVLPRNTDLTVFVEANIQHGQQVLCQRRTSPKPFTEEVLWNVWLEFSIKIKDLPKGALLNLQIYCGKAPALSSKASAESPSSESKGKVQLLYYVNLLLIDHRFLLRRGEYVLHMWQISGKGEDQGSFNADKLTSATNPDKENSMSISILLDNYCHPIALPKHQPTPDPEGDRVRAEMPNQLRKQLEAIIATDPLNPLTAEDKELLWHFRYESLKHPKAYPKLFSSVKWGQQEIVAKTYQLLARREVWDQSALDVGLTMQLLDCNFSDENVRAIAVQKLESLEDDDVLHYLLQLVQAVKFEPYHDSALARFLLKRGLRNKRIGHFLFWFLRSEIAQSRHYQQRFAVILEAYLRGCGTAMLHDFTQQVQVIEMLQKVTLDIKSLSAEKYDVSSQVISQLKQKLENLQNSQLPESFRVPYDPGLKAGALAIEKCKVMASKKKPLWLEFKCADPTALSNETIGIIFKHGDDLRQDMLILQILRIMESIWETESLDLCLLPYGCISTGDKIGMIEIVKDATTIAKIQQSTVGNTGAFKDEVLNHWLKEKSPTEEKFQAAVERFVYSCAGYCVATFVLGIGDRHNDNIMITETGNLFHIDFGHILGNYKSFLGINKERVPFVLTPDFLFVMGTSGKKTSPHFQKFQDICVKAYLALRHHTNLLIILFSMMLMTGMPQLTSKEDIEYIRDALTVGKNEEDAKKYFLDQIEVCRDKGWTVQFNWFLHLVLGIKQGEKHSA
Sequence of PI3 Kinase α (P42336 whole entry): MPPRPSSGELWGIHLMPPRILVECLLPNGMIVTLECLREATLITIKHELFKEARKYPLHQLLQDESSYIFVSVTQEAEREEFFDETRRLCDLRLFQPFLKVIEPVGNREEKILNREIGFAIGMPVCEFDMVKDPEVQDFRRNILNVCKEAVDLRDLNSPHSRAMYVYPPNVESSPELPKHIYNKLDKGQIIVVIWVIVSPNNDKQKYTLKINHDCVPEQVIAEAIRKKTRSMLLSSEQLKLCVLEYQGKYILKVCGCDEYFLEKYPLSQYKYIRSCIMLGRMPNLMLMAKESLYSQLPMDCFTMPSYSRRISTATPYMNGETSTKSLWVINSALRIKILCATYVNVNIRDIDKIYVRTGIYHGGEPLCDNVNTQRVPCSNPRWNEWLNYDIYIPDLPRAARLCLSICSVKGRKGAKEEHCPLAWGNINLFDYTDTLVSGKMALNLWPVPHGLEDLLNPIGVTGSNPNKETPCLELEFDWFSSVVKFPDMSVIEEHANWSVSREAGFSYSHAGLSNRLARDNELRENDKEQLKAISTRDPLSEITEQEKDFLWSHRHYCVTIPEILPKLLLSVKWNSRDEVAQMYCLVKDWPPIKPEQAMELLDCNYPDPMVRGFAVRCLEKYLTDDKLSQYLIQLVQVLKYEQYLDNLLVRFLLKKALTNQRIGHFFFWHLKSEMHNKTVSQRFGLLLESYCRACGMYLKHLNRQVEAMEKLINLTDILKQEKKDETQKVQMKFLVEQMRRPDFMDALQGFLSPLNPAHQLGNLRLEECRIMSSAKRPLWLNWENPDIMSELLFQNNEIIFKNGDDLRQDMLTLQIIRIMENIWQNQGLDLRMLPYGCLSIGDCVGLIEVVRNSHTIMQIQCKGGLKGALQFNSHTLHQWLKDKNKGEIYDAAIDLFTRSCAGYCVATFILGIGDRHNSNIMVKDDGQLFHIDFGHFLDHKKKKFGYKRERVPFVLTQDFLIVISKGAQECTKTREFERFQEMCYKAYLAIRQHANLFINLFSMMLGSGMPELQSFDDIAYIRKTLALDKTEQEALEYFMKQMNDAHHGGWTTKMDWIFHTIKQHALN
Sequence of PI3 Kinase α (P27986 whole entry partner): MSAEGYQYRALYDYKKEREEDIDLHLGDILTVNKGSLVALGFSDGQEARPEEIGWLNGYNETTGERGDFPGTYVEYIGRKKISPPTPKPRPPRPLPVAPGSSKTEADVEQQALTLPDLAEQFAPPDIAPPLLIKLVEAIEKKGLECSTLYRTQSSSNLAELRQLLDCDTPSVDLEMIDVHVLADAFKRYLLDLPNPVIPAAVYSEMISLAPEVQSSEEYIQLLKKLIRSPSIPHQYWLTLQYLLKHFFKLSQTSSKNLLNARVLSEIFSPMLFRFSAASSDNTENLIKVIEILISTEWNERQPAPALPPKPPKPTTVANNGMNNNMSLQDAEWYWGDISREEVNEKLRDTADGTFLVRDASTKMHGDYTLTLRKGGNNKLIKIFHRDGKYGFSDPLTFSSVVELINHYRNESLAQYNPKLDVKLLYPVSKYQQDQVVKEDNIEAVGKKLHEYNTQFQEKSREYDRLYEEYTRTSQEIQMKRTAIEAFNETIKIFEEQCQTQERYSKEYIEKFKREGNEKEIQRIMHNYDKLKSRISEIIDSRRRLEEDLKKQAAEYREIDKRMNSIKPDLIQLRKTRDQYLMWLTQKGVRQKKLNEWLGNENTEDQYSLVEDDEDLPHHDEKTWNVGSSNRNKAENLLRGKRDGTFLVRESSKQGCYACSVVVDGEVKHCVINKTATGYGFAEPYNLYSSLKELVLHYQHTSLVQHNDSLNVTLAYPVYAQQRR

Oc1cccc(-c2nc(C3=CCOCC3)c3ncn(C4CCN(Cc5ccco5)CC4)c3n2)c1 [Compound 13, 3-{6-(3,6-dihydro-2H-pyran-4-yl)-9-[1-(2-furylmethyl)piperidin-4-yl]-9H-purin-2-yl}phenol]
IC50 [1]: 1400 nM | IC50 [2]: 832 nM | IC50 [3]: 859 nM

Oc1cncc(-c2nc(C3=CCOCC3)c3ncn(C4CCNCC4)c3n2)c1 [Compound 44, 5-[6-(3,6-dihydro-2H-pyran-4-yl)-9-piperidin-4-yl-9H-purin-2-yl]pyridin-3-ol]
IC50 [1]: 4800 nM | IC50 [2]: 628 nM | IC50 [3]: 2630 nM

OCc1cccc(-c2nc(C3=CCOCC3)c3ncn(C4CCN(Cc5ccc(Br)nc5)CC4)c3n2)c1 [Compound 25, {3-[9-{1-[(6-bromopyridin-3-yl)methyl]piperidin-4-yl}-6-(3,6-dihydro-2H-pyran-4-yl)-9H-purin-2-yl]phenyl}methanol]
IC50 [1]: 890 nM | IC50 [2]: 228 nM | IC50 [3]: 1340 nM

Oc1cccc(-c2nc(C3=CCOCC3)c3nc[nH]c3n2)c1 [Compound 11, 3-[6-(3,6-dihydro-2H-pyran-4-yl)-9H-purin-2-yl]phenol]
IC50 [1]: 1400 nM | IC50 [2]: 85 nM | IC50 [3]: 1250 nM

OCc1cccc(-c2nc(C3=CCOCC3)c3ncn(CCN4CCCCC4)c3n2)c1 [Compound 45, {3-[6-(3,6-dihydro-2H-pyran-4-yl)-9-(2-piperidin-1-ylethyl)-9H-purin-2-yl]phenyl}methanol]
IC50 [1]: > 4000 nM | IC50 [2]: 1350 nM | IC50 [3]: 9000 nM

CNC(=O)Nc1ccc(-c2nc(C3=CCOCC3)c3ncn(C4CCN(Cc5ccc[nH]5)CC4)c3n2)cc1 [Compound 41, 1-(4-{6-(3,6-dihydro-2H-pyran-4-yl)-9-[1-(1H-pyrrol-2-ylmethyl)piperidin-4-yl]-9H-purin-2-yl}phenyl)-3-methylurea]
IC50 [1]: 130 nM | IC50 [2]: 543 nM | IC50 [3]: 3110 nM

Oc1cccc(-c2nc(C3=CCOCC3)c3ncn(C4CCNCC4)c3n2)c1 [Compound 40, 3-[6-(3,6-dihydro-2H-pyran-4-yl)-9-piperidin-4-yl-9H-purin-2-yl]phenol]
IC50 [1]: 1400 nM | IC50 [2]: 540 nM | IC50 [3]: 3160 nM

OCc1cccc(-c2nc(C3=CCOCC3)c3ncn(C4CCNCC4)c3n2)c1 [Compound 43, {3-[6-(3,6-dihydro-2H-pyran-4-yl)-9-piperidin-4-yl-9H-purin-2-yl]phenyl}methanol]
IC50 [1]: > 4000 nM | IC50 [2]: 574 nM | IC50 [3]: 2060 nM

Oc1cccc(-c2nc(C3=CCOCC3)c3ncn(C4CCN(Cc5ccc[nH]5)CC4)c3n2)c1 [Compound 15, 3-{6-(3,6-dihydro-2H-pyran-4-yl)-9-[1-(1H-pyrrol-2-ylmethyl)piperidin-4-yl]-9H-purin-2-yl}phenol]
IC50 [1]: 1400 nM | IC50 [2]: 280 nM | IC50 [3]: 736 nM

Oc1cncc(-c2nc(C3=CCOCC3)c3nn[nH]c3n2)c1 [Compound 50, 5-[7-(3,6-dihydro-2H-pyran-4-yl)-3H-[1,2,3]triazolo[4,5-d]pyrimidin-5-yl]pyridin-3-ol]
IC50 [1]: 360 nM | IC50 [2]: 78 nM | IC50 [3]: 100 nM

7,9-dibenzyl-6-(3,6-dihydro-2H-pyran-4-yl)-2-(3-hydroxyphenyl)-7,9-dihydro-8H-purin-8-one [Compound 66]
IC50 [1]: 14000 nM | IC50 [2]: 2420 nM | IC50 [3]: 1610 nM

Oc1cccc(-c2nc(C3=CCOCC3)c3ncn(CCN4CCCCC4)c3n2)c1 [Compound 46, 3-[6-(3,6-dihydro-2H-pyran-4-yl)-9-(2-piperidin-1-ylethyl)-9H-purin-2-yl]phenol]
IC50 [1]: > 4000 nM | IC50 [2]: 1350 nM | IC50 [3]: 15000 nM

OCc1cccc(-c2nc(C3=CCOCC3)c3ncn(C4CCN(Cc5ccc(F)nc5)CC4)c3n2)c1 [Compound 22, {3-[6-(3,6-dihydro-2H-pyran-4-yl)-9-{1-[(6-fluoropyridin-3-yl)methyl]piperidin-4-yl}-9H-purin-2-yl]phenyl}methanol]
IC50 [1]: 1900 nM | IC50 [2]: 1050 nM | IC50 [3]: 5400 nM

O=c1[nH]c2nc(-c3cccc(O)c3)nc(C3=CCOCC3)c2[nH]1 [Compound 38, 6-(3,6-dihydro-2H-pyran-4-yl)-2-(3-hydroxyphenyl)-7,9-dihydro-8H-purin-8-one]
IC50 [1]: 190 nM | IC50 [2]: 152 nM | IC50 [3]: 543 nM

COc1ncccc1CN1CCC(n2cnc3c(C4=CCOCC4)nc(-c4cncc(O)c4)nc32)CC1 [Compound 36, 5-[6-(3,6-dihydro-2H-pyran-4-yl)-9-{1-[(2-methoxypyridin-3-yl)methyl]piperidin-4-yl}-9H-purin-2-yl]pyridin-3-ol]
IC50 [1]: 2800 nM | IC50 [2]: 506 nM | IC50 [3]: 2480 nM

Oc1cccc(-c2nc(C3=CCOCC3)c3ncn(C4CCN(Cc5cnc[nH]5)CC4)c3n2)c1 [Compound 17, 3-{6-(3,6-dihydro-2H-pyran-4-yl)-9-[1-(1H-imidazol-5-ylmethyl)piperidin-4-yl]-9H-purin-2-yl}phenol]
IC50 [1]: 1200 nM | IC50 [2]: 1060 nM | IC50 [3]: 2580 nM

OCc1cccc(-c2nc(C3=CCOCC3)c3ncn(C4CCN(Cc5ccccn5)CC4)c3n2)c1 [Compound 24, (3-{6-(3,6-dihydro-2H-pyran-4-yl)-9-[1-(pyridin-2-ylmethyl)piperidin-4-yl]-9H-purin-2-yl}phenyl)methanol]
IC50 [1]: 1700 nM | IC50 [2]: 1690 nM | IC50 [3]: 7620 nM

Oc1cccc(-c2nc(C3=CCOCC3)c3ncn(C4CCN(Cc5ccc(Br)nc5)CC4)c3n2)c1 [Compound 19, 3-[9-{1-[(6-bromopyridin-3-yl)methyl]piperidin-4-yl}-6-(3,6-dihydro-2H-pyran-4-yl)-9H-purin-2-yl]phenol]
IC50 [1]: 690 nM | IC50 [2]: 5000 nM | IC50 [3]: > 10000 nM

Oc1cncc(-c2nc(C3=CCOCC3)c3ncn(C4CCN(Cc5ccc(Cl)nc5)CC4)c3n2)c1 [Compound 37, 5-[9-{1-[(6-chloropyridin-3-yl)methyl]piperidin-4-yl}-6-(3,6-dihydro-2H-pyran-4-yl)-9H-purin-2-yl]pyridin-3-ol]
IC50 [1]: 1600 nM | IC50 [2]: 437 nM | IC50 [3]: 719 nM

Oc1cccc(-c2nc(C3=CCOCC3)c3nnn(C4CCN(Cc5ccccc5)CC4)c3n2)c1 [Compound 47, 3-[3-(1-benzylpiperidin-4-yl)-7-(3,6-dihydro-2H-pyran-4-yl)-3H-[1,2,3]triazolo[4,5-d]pyrimidin-5-yl]phenol]
IC50 [1]: 230 nM | IC50 [2]: 998 nM | IC50 [3]: 1500 nM

Oc1cccc(-c2nc(C3=CCOCC3)c3ncn(C4CCN(Cc5ccc(F)c(F)c5)CC4)c3n2)c1 [Compound 20, 3-{9-[1-(3,4-difluorobenzyl)piperidin-4-yl]-6-(3,6-dihydro-2H-pyran-4-yl)-9H-purin-2-yl}phenol]
IC50 [2]: 7000 nM | IC50 [3]: > 10000 nM
